Data published in US4350692A, “3,7-Disubstituted-3-cephem-4-carboxylic acids” (Fujisawa Pharmaceutical Co., Ltd., priority 1976, dated 1982).
In brackets after ≈: the same amount, converted by molar mass. Read-outs that look alike come from different tables or passages of the source.

Tested on: Pseudomonus aeruginosa NCTC-10490
Assay: In vitro activity, two-fold agar-plate dilution method, minimal inhibitory concentration (MIC)
Format: cell-based
Conditions: read-out: MIC (minimal inhibitory concentration)
[1] = heart infusion agar (HI-agar), overnight culture in Trypticase-soy broth (10^8 viable cells per ml.), incubation at 37° C. for 20 hours

Row | MIC [1] [µg/mL] | Compound | MIC (20 h) [µg/mL]
1 | 6.25 (≈ 7.57 µM) | CC(=O)OCC1=C(C(=O)O)N2C(=O)[C@@H](NC(=O)[C@H](NC(=O)COc3ccc(Cl)cc3C(=O)c3ccc(NC(=O)CSCC(=O)O)cc3)c3ccccc3)[C@H]2SC1 [Example 69, 7-[D-N-[2-{2-(4-carboxymethylthioacetamidobenzoyl)-4-chlorophenoxy}acetyl]-2-phenylglycinamido]cephalosporanic acid] | 
2 | 0.78 (≈ 1.12 µM) | Cn1nnnc1SCC1=C(C(=O)O)N2C(=O)C(NC(=O)[C@H](NC(=O)c3cc(S(N)(=O)=O)c(Cl)cc3O)c3ccccc3)C2SC1 (stereo partly drawn) [Example 8, 7-[D-N-(2-hydroxy-4-chloro-5-sulfamoylbenzoyl)-2-phenylglycinamido]-3-(1-methyl-1H-tetrazol-5-ylthiomethyl)-3-cephem-4-carboxylic acid] | 
3 | 0.78 (≈ 1.25 µM) | CC(=O)c1ccc(O)c(C(=O)N[C@@H](C(=O)NC2C(=O)N3C(C(=O)O)=C(CSc4nnnn4C)CSC23)c2ccccc2)c1 (stereo partly drawn) [Example 5, 7-[D-N-(2-hydroxy-5-acetylbenzoyl)-2-phenylglycinamido]-3-(1-methyl-1H-tetrazol-5-ylthiomethyl)-3-cephem-4-carboxylic acid] | 
4 | 6.25 (≈ 9.18 µM) | Cn1nnnc1SCC1=C(C(=O)O)N2C(=O)C(NC(=O)[C@H](NC(=O)COc3cc(Cl)cc(Cl)c3O)c3ccccc3)C2SC1 (stereo partly drawn) [Example 63, 7-[D-N-{2-(2-hydroxy-3,5-dichlorophenoxy)acetyl}-2-phenylglycinamido]-3-(1-methyl-1H-tetrazol-5-ylthiomethyl)-3-cephem-4-carboxylic acid] | 
5 | 12.5 (≈ 20.4 µM) | Cc1nnc(SCC2=C(C(=O)O)N3C(=O)C(NC(=O)[C@H](NC(=O)[C@H](O)c4ccccc4)c4ccccc4)C3SC2)s1 (stereo partly drawn) [Example 56, 7-[D-N-(D-mandeloyl)-2-phenylglycinamido]-3-(5-methyl-1,3,4-thiadiazol-2-ylthiomethyl)-3-cephem-4-carboxylic acid] | 

More lines, now with the values behind:

Row | Compound | MIC [1] [µg/mL] | MIC (20 h) [µg/mL]
6 | Cn1nnnc1SCC1=C(C(=O)O)N2C(=O)C(NC(=O)[C@H](NC(=O)c3ccc(O)cc3O)c3ccccc3)C2SC1 (stereo partly drawn) [Example 25, 7-[D-N-(2,4-dihydroxybenzoyl)-2-phenylglycinamido]-3-(1-methyl-1H-tetrazol-5-ylthiomethyl)-3-cephem-4-carboxylic acid] |  | 1.56 (≈ 2.61 µM)
7 | CN1CCN(S(=O)(=O)c2ccc(O)c(C(=O)N[C@@H](C(=O)NC3C(=O)N4C(C(=O)O)=C(CSc5nnnn5C)CSC34)c3ccccc3)c2)CC1 (stereo partly drawn) [Example 52, 7-[D-N-{2-hydroxy-5-(4-methyl-1-piperazinylsulfonyl)benzoyl}-2-phenylglycinamido]-3-(1-methyl-1H-tetrazol-5-ylthiomethyl)-3-cephem-4-carboxylic acid] |  | 1.56 (≈ 2.1 µM)
8 | Cn1nnnc1SCC1=C(C(=O)O)N2C(=O)C(NC(=O)[C@H](NC(=O)c3cc(C#N)c(Cl)cc3O)c3ccccc3)C2SC1 (stereo partly drawn) [Example 6, 7-[D-N-(2-hydroxy-4-chloro-5-cyanobenzoyl)-2-phenylglycinamido]-3-(1-methyl-1H-tetrazol-5-ylthiomethyl)-3-cephem-4-carboxylic acid] |  | 1.56 (≈ 2.43 µM)
9 | Cn1nnnc1SCC1=C(C(=O)O)N2C(=O)C(NC(=O)[C@H](NC(=O)c3cc([N+](=O)[O-])ccc3O)c3ccccc3)C2SC1 (stereo partly drawn) [Example 3, 7-[D-N-(2-hydroxy-5-nitrobenzoyl)-2-phenylglycinamido]-3-(1-methyl-1H-tetrazol-5-ylthiomethyl)-3-cephem-4-carboxylic acid] | 0.78 (≈ 1.24 µM) | 
10 | CC(=O)OCC1=C(C(=O)O)N2C(=O)[C@@H](NC(=O)[C@H](NC(=O)COc3ccc(Cl)cc3C(=O)c3ccccc3)c3ccccc3)[C@H]2SC1 [Example 67, 7-[D-N-{2-(2-benzoyl-4-chlorophenoxy)acetyl}-2-phenylglycinamido]cephalosporanic acid] |  | 1.56 (≈ 2.3 µM)
11 | Cn1nnnc1SCC1=C(C(=O)O)N2C(=O)C(NC(=O)[C@H](NC(=O)c3cc(Cl)cc(Cl)c3O)c3ccccc3)C2SC1 (stereo partly drawn) [Example 2, 7-[D-N-(2-hydroxy-3,5-dichlorobenzoyl)-2-phenylglycinamido]-3-(1-methyl-1H-tetrazol-5-ylthiomethyl)-3-cephem-4-carboxylic acid] | 0.78 (≈ 1.2 µM) | 
12 | Cn1nnnc1SCC1=C(C(=O)O)N2C(=O)C(NC(=O)[C@H](NC(=O)c3cc(C(N)=O)c(Cl)cc3O)c3ccccc3)C2SC1 (stereo partly drawn) [Example 7, 7-[D-N-(2-hydroxy-4-chloro-5-carbamoylbenzoyl)-2-phenylglycinamido]-3-(1-methyl-1H-tetrazol-5-ylthiomethyl)-3-cephem-4-carboxylic acid] | 0.78 (≈ 1.18 µM) | 
13 | CCOC(=O)CS(=O)(=O)NCc1nnc(SCC2=C(C(=O)O)N3C(=O)C(NC(=O)[C@H](NC(=O)c4cc(Cl)cc(Cl)c4O)c4ccccc4)C3SC2)s1 (stereo partly drawn) [Example 53, 7-[D-N-(2-hydroxy-3,5-dichlorobenzoyl)-2-phenylglycinamido]-3-(5-ethoxycarbonylmesylaminomethyl-1,3,4-thiadiazol-2-ylthiomethyl)-3-cephem-4-carboxylic acid] |  | 1.56 (≈ 1.88 µM)
14 | Cn1nnnc1SCC1=C(C(=O)O)N2C(=O)C(NC(=O)[C@H](NC(=O)c3cc(S(N)(=O)=O)ccc3O)c3ccccc3)C2SC1 (stereo partly drawn) [Example 4, 7-[D-N-(2-hydroxy-5-sulfamoylbenzoyl)-2-phenylglycinamido]-3-(1-methyl-1H-tetrazol-5-ylthiomethyl)-3-cephem-4-carboxylic acid] | 0.78 (≈ 1.18 µM) | 
15 | Cn1nnnc1SCC1=C(C(=O)O)N2C(=O)C(NC(=O)[C@H](NC(=O)c3cc([N+](=O)[O-])cc([N+](=O)[O-])c3O)c3ccccc3)C2SC1 (stereo partly drawn) [Example 9, 7-[D-N-(2-hydroxy-3,5-dinitrobenzoyl)-2-phenylglycinamido]-3-(1-methyl-1H-tetrazol-5-ylthiomethyl)-3-cephem-4-carboxylic acid] |  | 1.56 (≈ 2.32 µM)
16 | Cn1nnnc1SCC1=C(C(=O)O)N2C(=O)[C@@H](NC(=O)[C@H](NC(=O)c3cc(Cl)ccc3O)c3ccccc3)[C@H]2SC1 [Example 1, 7-[D-N-(2-hydroxy-5-chlorobenzoyl)-2-phenylglycinamido]-3-(1-methyl-1H-tetrazol-5-ylthiomehyl)-3-cephem-4-carboxylic acid] |  | 1.56 (≈ 2.53 µM)
